Source: ChEMBL document CHEMBL5316328, “Discovery of AXL Degraders with Improved Potencies in Triple-Negative Breast Cancer (TNBC) Cells” (J Med Chem, 2023)
The source made the active and inactive calls. The calls are words filed in the database; no cut-off is given here.

Tests used:
MDA-MB-231 [1] = assay: Induction of cell cycle arrest in human MDA-MB-231 cells assessed as G0/G1 phase cells at 300 nM incubated for 24 hrs by PI staining based flow cytometric analysis (reference value: 63.32 to 64.94%); type: functional
MDA-MB-231 [2] = assay: Induction of cell cycle arrest in human MDA-MB-231 cells assessed as G0/G1 phase cells at 33.3 nM incubated for 24 hrs by PI staining based flow cytometric analysis (reference value: 63.32 to 64.94%); type: functional
MDA-MB-436 = assay: Antiproliferative activity against human MDA-MB-436 cells expressing AXL assessed as inhibition of cell growth incubated for 72 hrs by CCK8 assay; type: functional, cell-based; settings: MDA-MB-436, 72 h
[3] = target: T1, Protein cereblon/Tyrosine-protein kinase receptor UFO (Homo sapiens, UniProt P30530+Q96SW2); assay: PROTAC activity at CRBN/AXL in human MDA-MB-231 cells assessed as induction of AXL degradation at 40 nM preincubated with MLN-4924 for 2 hrs followed by compound treatment and measured after 24 hrs by Western blot analysis; type: cell-based
Target sequence in this assay (P30530 26-894 limits assumed): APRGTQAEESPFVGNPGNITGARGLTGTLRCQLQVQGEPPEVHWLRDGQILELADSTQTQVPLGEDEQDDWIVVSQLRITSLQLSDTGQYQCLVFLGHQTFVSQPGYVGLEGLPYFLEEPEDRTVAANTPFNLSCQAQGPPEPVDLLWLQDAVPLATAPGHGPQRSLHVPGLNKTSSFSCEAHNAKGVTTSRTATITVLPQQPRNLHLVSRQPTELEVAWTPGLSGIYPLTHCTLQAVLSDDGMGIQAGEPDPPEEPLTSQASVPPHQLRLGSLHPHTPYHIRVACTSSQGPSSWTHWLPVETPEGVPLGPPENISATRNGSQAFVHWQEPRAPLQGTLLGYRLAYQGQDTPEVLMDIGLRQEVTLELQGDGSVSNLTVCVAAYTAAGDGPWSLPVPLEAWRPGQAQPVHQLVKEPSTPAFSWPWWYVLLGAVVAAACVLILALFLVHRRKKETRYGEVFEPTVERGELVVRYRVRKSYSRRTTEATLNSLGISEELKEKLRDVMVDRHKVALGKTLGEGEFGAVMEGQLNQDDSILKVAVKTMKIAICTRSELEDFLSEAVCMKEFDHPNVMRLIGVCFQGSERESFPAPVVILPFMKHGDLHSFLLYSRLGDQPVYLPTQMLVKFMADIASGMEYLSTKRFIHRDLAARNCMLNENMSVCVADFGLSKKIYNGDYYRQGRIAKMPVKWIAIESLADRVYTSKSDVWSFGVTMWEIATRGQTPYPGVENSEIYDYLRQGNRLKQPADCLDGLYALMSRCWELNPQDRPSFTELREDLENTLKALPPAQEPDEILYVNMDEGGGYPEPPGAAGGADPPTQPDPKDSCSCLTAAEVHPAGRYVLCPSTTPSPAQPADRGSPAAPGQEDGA
Target sequence in this assay (Q96SW2 whole entry partner): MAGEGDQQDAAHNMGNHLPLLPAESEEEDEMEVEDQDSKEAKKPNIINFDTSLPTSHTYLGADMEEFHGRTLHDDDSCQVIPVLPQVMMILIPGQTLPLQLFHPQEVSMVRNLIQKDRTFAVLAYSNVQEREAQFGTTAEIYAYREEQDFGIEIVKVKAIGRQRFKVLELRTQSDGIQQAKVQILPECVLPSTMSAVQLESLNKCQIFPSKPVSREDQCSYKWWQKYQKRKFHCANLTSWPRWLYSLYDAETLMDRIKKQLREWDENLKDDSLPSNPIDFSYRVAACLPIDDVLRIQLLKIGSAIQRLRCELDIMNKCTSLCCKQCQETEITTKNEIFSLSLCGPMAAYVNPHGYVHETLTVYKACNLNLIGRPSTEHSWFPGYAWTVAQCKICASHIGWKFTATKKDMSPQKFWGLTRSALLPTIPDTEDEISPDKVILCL

[4] = target: T1, Protein cereblon/Tyrosine-protein kinase receptor UFO; assay: PROTAC activity at CRBN/AXL in human MDA-MB-231 cells assessed as induction of AXL degradation incubated for 24 hrs by immunoblot analysis; type: cell-based

`CCc1ccc2c(c1)c(=O)c(C(=O)Nc1ccc(Oc3ncnc4cc(OCCCCCC(=O)Nc5ccc6c(c5)CN(C5CCC(=O)NC5=O)C6=O)c(OC)cc34)c(F)c1)c(C)n2C` (stereo unspecified) gave an Activity (MDA-MB-231 [1]) of 47.51%, an Activity (MDA-MB-231 [2]) of 63.32% and an IC50 (MDA-MB-436) of 5 nM. For the same compound, the Activity [3] was “inactive”, the Activity [4] was “Dose-Dependent Effect” and the EC50 [4] was 5 nM.
